This passage reports IC50 results from patent US6683095B2, “CDK inhibitors having 3-hydroxychromen-4-one structure” (LG Life Sciences Ltd., priority 2000, dated 2004).

One test has as its target T1, CDK2/cyclin A (Homo sapiens, UniProt P24941).
T1 construct: His; made in house; host or cells: insect cell (baculovirus co-infection)
Put plainly: Inhibitory activity against CDK2 (CDK2/cyclin A kinase assay, GST-Rb substrate, 32P-ATP). Type of test: biochemical. The following applies: 100 μM ATP, 30° C., 30 minutes. How it is done:
The inhibitory activity against CDK2 was measured by referring to Kitagawa, M. et al., Oncogene 9; 2549, 1994 and that against CDK4 was measured by referring to Carlson, B. A. et al., Cancer Research 56; 2473, 1996.
The part of amino acid positions 780 to 928 of C-terminus of human Rb protein was isolated, N-terminus thereof was labelled with GST protein, large amount thereof was expressed in bacteria and purified to be used as the substrate for the enzyme.
(§1) The activities of CDK2/cyclin A and CDK4/cyclin D1 were determined as follows. About 100 ng of enzyme was reacted in a total 100 μl of 20 mM Tris(pH 8.0), 100 mM NaCl, 10 mM MgCl2 buffer solution containing 20 μg of GST-Rb protein, 100 μM of ATP and 5 μCi of p^32-γ-ATP at 30° C. for 30 minutes. Then, EDTA was added to a concentration of 20 mM to stop the enzyme reaction. Subsequently, 30 μl of 50% glutathione bead (purchased from Pharmacia) was added to attach GST-Rb to the bead, which was washed three times with 20 mM Tris(pH 8.0), 100 mM NaCl, 10 mM EDTA solution, and then scintillation counting was carried out. To analyze the inhibitory activity of the compound, the inhibitor having a proper concentration was added to the enzyme reaction solution, and then the enzyme activity was measured according to the above method.
The inhibitory activity against CDK2 and CDK4 of the compound of formula (1) according to the present invention was represented as IC50 value (see the following Table 1).

The next test addresses T2, CDK4/cyclin D1 (Homo sapiens, UniProt P11802).
T2 construct: GST; made in house; host or cells: insect cell
Put plainly: Inhibitory activity against CDK4 (CDK4/cyclin D1 kinase assay, GST-Rb substrate, 32P-ATP). Type of test: biochemical. The following applies: 100 μM ATP, 30° C., 30 minutes. The protocol: as §1

What is called IC50 is the midpoint of a concentration-inhibition curve.

T2 sequence (P11802 whole entry): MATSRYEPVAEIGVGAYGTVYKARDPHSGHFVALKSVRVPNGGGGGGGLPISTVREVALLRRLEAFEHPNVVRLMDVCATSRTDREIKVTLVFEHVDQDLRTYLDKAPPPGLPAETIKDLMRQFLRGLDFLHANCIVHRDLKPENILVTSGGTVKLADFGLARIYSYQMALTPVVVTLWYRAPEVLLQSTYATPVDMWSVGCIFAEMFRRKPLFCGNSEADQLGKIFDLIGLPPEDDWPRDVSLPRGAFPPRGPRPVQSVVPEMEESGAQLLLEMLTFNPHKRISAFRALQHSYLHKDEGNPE
T2 sequence (P24385 whole entry partner): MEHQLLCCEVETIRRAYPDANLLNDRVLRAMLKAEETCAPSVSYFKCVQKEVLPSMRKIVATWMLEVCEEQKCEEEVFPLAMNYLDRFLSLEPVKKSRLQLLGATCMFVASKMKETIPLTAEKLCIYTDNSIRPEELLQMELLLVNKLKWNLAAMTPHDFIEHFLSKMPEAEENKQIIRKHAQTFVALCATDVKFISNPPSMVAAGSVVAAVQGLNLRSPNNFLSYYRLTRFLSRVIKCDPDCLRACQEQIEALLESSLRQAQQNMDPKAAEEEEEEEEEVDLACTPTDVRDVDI

Turning to `CN(CCO)c1cc(N2CCCS2(=O)=O)c2oc(-c3ccc(O)cc3)c(O)c(=O)c2c1` [Compound 33, 2-{3-hydroxy-6-[(2-hydroxyethyl)(methyl)amino]-2-(4-hydroxyphenyl)-4-oxo-4H-chromen-8-yl}-1λ^6-isothiazolidin-1,1-dione], the IC50 at CDK2/cyclin A turned out to be 0.6 µM; at CDK4/cyclin D1 it was 0.9 µM.
For `Cc1cc(N2CCCS2(=O)=O)c2oc(-c3ccc(F)c(Cl)c3)c(O)c(=O)c2c1` [Compound 21, 2-[2-(3-chloro-4-fluorophenyl)-3-hydroxy-6-methyl-4-oxo-4H-chromen-8-yl]-1λ^6-isothiazolidin-1,1-dione], in that order: 13 µM and 24 µM.
On to `CC(=O)Nc1cc(C)cc2c(=O)c(O)c(-c3ccc(O)c(N)c3)oc12` [Compound 7B, N-[2-(3-amino-4-hydroxyphenyl)-3-hydroxy-6-methyl-4-oxo-4H-chromen-8-yl]acetamide], for which the results for the IC50 on CDK2/cyclin A and on CDK4/cyclin D1 were 3 µM and 17 µM, respectively.
On to `Cc1cc(N2CCCS2(=O)=O)c2oc(-c3ccc(O)c(C)c3)c(O)c(=O)c2c1` [Compound 22, 2-[3-hydroxy-2-(4-hydroxy-3-methylphenyl)-6-methyl-4-oxo-4H-chromen-8-yl]-1λ^6-isothiazolidin-1,1-dione], for which the IC50 on CDK2/cyclin A was found to be 0.7 µM; on CDK4/cyclin D1, 2 µM.
Turning to `CC(=O)Nc1cc(C)cc2c(=O)c(O)c(-c3ccc(O)c(NC(C)C)c3)oc12` [Compound 7A, N-{2-[4-hydroxy-3-(isopropylamino)phenyl]-3-hydroxy-6-methyl-4-oxo-4H-chromen-8-yl}acetamide], the IC50 against CDK2/cyclin A stood at 18 µM; against CDK4/cyclin D1 it was 47 µM.
`O=c1c(O)c(-c2ccc(O)cc2)oc2c(N3CCCS3(=O)=O)cc(NCc3ccccc3)cc12` [Compound 28, 2-[6-(benzylamino)-3-hydroxy-2-(4-hydroxyphenyl)-4-oxo-4H-chromen-8-yl]-1λ^6-isothiazolidin-1,1-dione]: the IC50 against CDK2/cyclin A was 2.24 µM; against CDK4/cyclin D1, 3.2 µM.
As for `Cc1cc(-c2ccncc2)c2oc(-c3ccc(O)c(Cl)c3)c(O)c(=O)c2c1` [Compound 39, 2-(3-chloro-4-hydroxyphenyl)-3-hydroxy-6-methyl-8-(4-pyridinyl)-4H-chromen-4-one], the half-inhibitory concentration (IC50) is 0.13 µM on CDK2/cyclin A and 0.28 µM at CDK4/cyclin D1.
For `Nc1cc(N2CCCS2(=O)=O)c2oc(-c3ccc(O)cc3)c(O)c(=O)c2c1` [Compound 25, 2-[6-amino-3-hydroxy-2-(4-hydroxyphenyl)-4-oxo-4H-chromen-8-yl]-1λ^6-isothiazolidin-1,1-dione], in that order: 0.088 µM and 1.2 µM.
Take `Cc1cc([N+](=O)[O-])c2oc(-c3ccc(O)c([N+](=O)[O-])c3)c(O)c(=O)c2c1` [Compound 2, 2-(4-hydroxy-3-nitrophenyl)-3-hydroxy-6-methyl-8-nitro-4H-chromen-4-one]: the IC50 on CDK2/cyclin A amounted to 4.5 µM; against CDK4/cyclin D1, 7.7 µM.
Consider `Cc1cc(N)c2oc(-c3ccc(O)cc3)c(O)c(=O)c2c1` [Compound 4, 8-amino-2-(4-hydroxyphenyl)-3-hydroxy-6-methyl-4H-chromen-4-one], for which the IC50 at CDK2/cyclin A and against CDK4/cyclin D1 was 2.1 µM each time.
Regarding `Cc1cc(N2CCCS2(=O)=O)c2oc(-c3ccc(O)c(C#N)c3)c(O)c(=O)c2c1` [Compound 19, 5-[8-(1,1-dioxo-1λ^6-isothiazolidin-2-yl)-3-hydroxy-6-methyl-4-oxo-4H-chromen-2-yl]-2-hydroxybenzonitrile], the IC50 against CDK2/cyclin A stood at 1.4 µM; against CDK4/cyclin D1 it was 0.79 µM.
As for `Cc1cc(N2CCCS2(=O)=O)c2oc(-c3ccc(O)cc3O)c(O)c(=O)c2c1` [Compound 20, 2-[2-(2,4-dihydroxyphenyl)-3-hydroxy-6-methyl-4-oxo-4H-chromen-8-yl]-1λ^6-isothiazolidin-1,1-dione], the half-maximal inhibitory concentration (IC50) at CDK2/cyclin A was 1000 µM; at CDK4/cyclin D1, 500 µM.
On the same counts, the results for `Cc1cc(N2CCCS2(=O)=O)c2oc(-c3ccc(O)c(C(F)(F)F)c3)c(O)c(=O)c2c1` [Compound 24, 2-[3-hydroxy-2-(4-hydroxy-3-trifluoromethylphenyl)-6-methyl-4-oxo-4H-chromen-8-yl]-1λ^6-isothiazolidin-1,1-dione] are 0.25 µM and 2.1 µM.
For `CC(=O)Nc1cc(-c2oc3ccc(C)cc3c(=O)c2O)ccc1O` [Compound 6, N-[2-hydroxy-5-(3-hydroxy-6-methyl-4-oxo-4H-chromen-2-yl)phenyl]acetamide], the IC50 against CDK2/cyclin A is 30 µM; against CDK4/cyclin D1, 10 µM.
On to `O=c1c(O)c(-c2ccc(O)cc2)oc2c(N3CCCS3(=O)=O)cc(Nc3ccccc3)cc12` [Compound 31, 2-[6-anilino-3-hydroxy-2-(4-hydroxyphenyl)-4-oxo-4H-chromen-8-yl]-1λ^6-isothiazolidin-1,1-dione], for which the IC50 turned out to be 1.4 µM against CDK2/cyclin A and 3 µM against CDK4/cyclin D1.
Regarding `Cc1cc(N2CCCS2(=O)=O)c2oc(-c3ccc(O)c(Br)c3)c(O)c(=O)c2c1` [Compound 18, 2-[2-(3-bromo-4-hydroxyphenyl)-3-hydroxy-6-methyl-4-oxo-4H-chromen-8-yl]-1λ^6-isothiazolidin-1,1-dione], the IC50 is 0.075 µM at CDK2/cyclin A and 0.21 µM against CDK4/cyclin D1.
With `Cc1cc(N2CCCS2(=O)=O)c2oc(-c3ccc(O)c(F)c3)c(O)c(=O)c2c1` [Compound 16, 2-[2-(3-fluoro-4-hydroxyphenyl)-3-hydroxy-6-methyl-4-oxo-4H-chromen-8-yl]-1λ^6-isothiazolidin-1,1-dione], the IC50 at CDK2/cyclin A is 0.45 µM; on CDK4/cyclin D1 it was 1.1 µM.
Take `Cc1ccc2oc(-c3ccc(O)c(O)c3O)c(O)c(=O)c2c1` [Compound 13, 3-hydroxy-6-methyl-2-(2,3,4-trihydroxyphenyl)-4H-chromen-4-one]: the IC50 against CDK2/cyclin A was determined as 1000 µM; at CDK4/cyclin D1 it was 50 µM.
Take `Cc1cc(C2CCN(CCO)CC2)c2oc(-c3ccc(O)c(Cl)c3)c(O)c(=O)c2c1` [Compound 44, 2-(3-chloro-4-hydroxyphenyl)-3-hydroxy-8-[1-(2-hydroxyethyl)-4-piperidinyl]-6-methyl-4H-chromen-4-one]: the IC50 on CDK2/cyclin A and at CDK4/cyclin D1 was less than 1 µM throughout.
As to `Cc1cc(C2CCN(C)CC2)c2oc(-c3ccc(O)c(C(F)(F)F)c3)c(O)c(=O)c2c1` [Compound 43, 3-hydroxy-2-(4-hydroxy-3-trifluoromethylphenyl)-6-methyl-8-(1-methyl-4-piperidinyl)-4H-chromen-4-one], the half-maximal inhibitory concentration (IC50) is 6.3 µM at CDK2/cyclin A and less than 1 µM at CDK4/cyclin D1.
Take `CN(C)c1cc(N2CCCS2(=O)=O)c2oc(-c3ccc(O)cc3)c(O)c(=O)c2c1` [Compound 26, 2-[6-(dimethylamino)-3-hydroxy-2-(4-hydroxyphenyl)-4-oxo-4H-chromen-8-y]-1λ^6-isothiazolidin-1,1-dione]: the IC50 came to 0.22 µM at CDK2/cyclin A and 0.71 µM at CDK4/cyclin D1.
On to `Cc1cc(C2CCN(CCN)CC2)c2oc(-c3ccc(O)c(Cl)c3)c(O)c(=O)c2c1` [Compound 45, 8-[1-(2-aminoethyl)-4-piperidinyl]-2-(3-chloro-4-hydroxyphenyl)-3-hydroxy-6-methyl-4H-chromen-4-one], for which the IC50 on CDK2/cyclin A and against CDK4/cyclin D1 was less than 1 µM throughout.
In the case of `CCN(CC)c1cc(N2CCCS2(=O)=O)c2oc(-c3ccc(O)cc3)c(O)c(=O)c2c1` [Compound 27, 2-[6-(diethylamino)-3-hydroxy-2-(4-hydroxyphenyl)-4-oxo-4H-chromen-8-yl]-1λ^6-isothiazolidin-1,1-dione], the figures for the IC50 at CDK2/cyclin A and against CDK4/cyclin D1 were 9 µM and 7.1 µM, respectively.
On to `Cc1ccc2oc(-c3ccc(O)c(O)c3Br)c(O)c(=O)c2c1` [Compound 14, 2-(2-bromo-3,4-dihydroxyphenyl)-3-hydroxy-6-methyl-4H-chromen-4-one], for which the IC50 against CDK2/cyclin A turned out to be 500 µM; on CDK4/cyclin D1 it was 11 µM.
For `Nc1cc(N2CCCS2(=O)=O)c2oc(-c3ccc(O)c(Cl)c3)c(O)c(=O)c2c1` [Compound 35, 2-[6-amino-2-(3-chloro-4-hydroxyphenyl)-3-hydroxy-4-oxo-4H-chromen-8-yl]-1λ^6-isothiazolidin-1,1-dione], in that order: 0.07 µM and 0.18 µM.
Consider `Cc1cc(N)c2oc(-c3cccc(O)c3)c(O)c(=O)c2c1` [Compound 12, 8-amino-3-hydroxy-2-(3-hydroxyphenyl)-6-methyl-4H-chromen-4-one], for which the IC50 against CDK2/cyclin A is 2 µM; on CDK4/cyclin D1 it was 2.1 µM.
`O=c1c(O)c(-c2ccc(O)cc2)oc2c(N3CCCS3(=O)=O)cc(NC3CCNCC3)cc12` [Compound 29, 2-[3-hydroxy-2-(4-hydroxyphenyl)-4-oxo-6-(4-piperidinylamino)-4H-chromen-8-yl]-1λ^6-isothiazolidin-1,1-dione]: the IC50 against CDK2/cyclin A is 1.8 µM; against CDK4/cyclin D1, 1.7 µM.
As for `O=c1c(O)c(-c2ccc(O)cc2)oc2c(N3CCCS3(=O)=O)cc(NC3CCCCC3)cc12` [Compound 30, 2-[6-(cyclohexylamino)-3-hydroxy-2-(4-hydroxyphenyl)-4-oxo-4H-chromen-8-yl]-1λ^6-isothiazolidin-1,1-dione], the IC50 was found to be 5.6 µM on CDK2/cyclin A and 1.6 µM on CDK4/cyclin D1.
